Results reported in ChEMBL document CHEMBL5465560, “Selectivity Literature for EUbOPEN Chemogenomic Library” (2024).
One block for each compound: values may come before it.

Legend:
[1] = biological target: Mitogen-activated protein kinase kinase kinase 8 (Homo sapiens, UniProt P41279); test: Selectivity interaction (SelectScreen profiling (Invitrogen)) EUB0000607a MAP3K8; details: at 2 µM
[2] = biological target: Tyrosine-protein kinase Fer (Homo sapiens) (UniProt P16591); details: at 10 µM
[3] = biological target: T1, Eukaryotic translation initiation factor 2-alpha kinase 3 (Homo sapiens) (UniProt Q9NZJ5); test: Selectivity interaction (ProQinase) EUB0000171b EIF2AK3
T1 sequence (whole entry): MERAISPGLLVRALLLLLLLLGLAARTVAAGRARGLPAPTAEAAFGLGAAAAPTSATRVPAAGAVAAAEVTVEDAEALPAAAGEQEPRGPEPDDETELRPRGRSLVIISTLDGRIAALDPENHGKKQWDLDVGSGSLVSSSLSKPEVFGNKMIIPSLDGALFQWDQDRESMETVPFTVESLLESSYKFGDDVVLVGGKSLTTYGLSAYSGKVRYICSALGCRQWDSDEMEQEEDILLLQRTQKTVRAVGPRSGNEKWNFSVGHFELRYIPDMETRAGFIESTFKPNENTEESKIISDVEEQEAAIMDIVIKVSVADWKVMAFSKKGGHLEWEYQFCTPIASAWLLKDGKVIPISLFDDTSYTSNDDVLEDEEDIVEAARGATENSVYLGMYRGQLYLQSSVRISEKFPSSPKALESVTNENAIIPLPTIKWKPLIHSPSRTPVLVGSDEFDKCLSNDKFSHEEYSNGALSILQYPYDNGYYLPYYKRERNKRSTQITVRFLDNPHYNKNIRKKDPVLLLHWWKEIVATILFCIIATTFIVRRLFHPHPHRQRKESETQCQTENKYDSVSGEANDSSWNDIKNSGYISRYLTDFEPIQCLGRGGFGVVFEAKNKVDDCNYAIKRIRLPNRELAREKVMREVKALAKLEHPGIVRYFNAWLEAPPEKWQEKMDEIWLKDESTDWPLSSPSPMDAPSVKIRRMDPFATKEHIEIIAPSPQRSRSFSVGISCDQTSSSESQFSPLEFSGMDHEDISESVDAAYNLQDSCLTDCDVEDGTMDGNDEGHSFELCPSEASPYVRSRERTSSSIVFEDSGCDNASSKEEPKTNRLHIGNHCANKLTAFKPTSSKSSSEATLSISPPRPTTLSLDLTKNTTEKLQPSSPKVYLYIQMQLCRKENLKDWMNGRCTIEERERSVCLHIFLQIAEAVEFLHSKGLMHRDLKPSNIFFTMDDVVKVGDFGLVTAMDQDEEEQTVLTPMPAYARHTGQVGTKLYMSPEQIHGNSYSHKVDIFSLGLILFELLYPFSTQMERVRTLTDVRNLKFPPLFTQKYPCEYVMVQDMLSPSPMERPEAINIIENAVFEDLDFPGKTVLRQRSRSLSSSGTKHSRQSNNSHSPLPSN

[4] = test system: Tyrosine-protein kinase ABL1 (Homo sapiens), P00519 [M351T]; test: (§1) Selectivity interaction (ProQinase) EUB0000171b ABL1
[5] = test system: Tyrosine-protein kinase ABL1 (Homo sapiens), P00519 [E255K]; test: as §1
[6] = test system: Tyrosine-protein kinase ABL1 (Homo sapiens), P00519 [H396P]; test: as §1
[7] = test system: Tyrosine-protein kinase ABL1 (Homo sapiens), P00519 [T315I]; test: as §1
[8] = test system: Tyrosine-protein kinase ABL1 (Homo sapiens), P00519 [G250E]; test: as §1
[9] = biological target: Tyrosine-protein kinase ABL1 (Homo sapiens, UniProt P00519); test: as §1
[10] = test system: Tyrosine-protein kinase ABL1 (Homo sapiens), P00519 [Q252H]; test: as §1
[11] = test system: Tyrosine-protein kinase ABL1 (Homo sapiens), P00519 [F317I]; test: as §1
[12] = test system: Tyrosine-protein kinase ABL1 (Homo sapiens), P00519 [Y253F]; test: as §1
[13] = biological target: T2, Muscarinic acetylcholine receptor M2 (Homo sapiens) (UniProt P08172); test: Selectivity interaction (Panel of non-epigenetic targets (kinases, GPCRs, ion channels, and transporters, Eurofins) ) EUB0000271b CHRM2; details: at 1 µM
T2 sequence (whole entry): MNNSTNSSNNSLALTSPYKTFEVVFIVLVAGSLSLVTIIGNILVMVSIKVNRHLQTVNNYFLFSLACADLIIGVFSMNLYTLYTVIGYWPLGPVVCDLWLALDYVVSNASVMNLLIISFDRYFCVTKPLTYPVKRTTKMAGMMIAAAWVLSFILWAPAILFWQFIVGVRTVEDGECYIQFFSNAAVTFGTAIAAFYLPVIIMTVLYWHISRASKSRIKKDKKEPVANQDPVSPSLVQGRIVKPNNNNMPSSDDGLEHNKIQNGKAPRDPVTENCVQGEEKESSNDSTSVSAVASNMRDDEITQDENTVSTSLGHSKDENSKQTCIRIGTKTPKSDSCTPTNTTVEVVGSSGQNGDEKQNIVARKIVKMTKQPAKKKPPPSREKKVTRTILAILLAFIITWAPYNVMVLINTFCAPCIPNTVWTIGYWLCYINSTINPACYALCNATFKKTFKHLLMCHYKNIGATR

[14] = biological target: Dual specificity mitogen-activated protein kinase kinase 2 (Homo sapiens) (UniProt P36507); test: Selectivity interaction (KinomeScan (DiscoverX)) EUB0000595a MAP2K2; details: at 10 µM
[15] = biological target: LIM domain kinase 2 (Homo sapiens) (UniProt P53671); test: Selectivity interaction (KinomeScan (DiscoverX)) EUB0001049a LIMK2; details: at 1 µM
[16] = biological target: Ribosomal protein S6 kinase alpha-6 (Homo sapiens, UniProt Q9UK32); test: Selectivity interaction (Ambit KINOMEscan and KiNATiv profiling in Jurkat cells) EUB0000090b RPS6KA6; assay type: cell-based; details: at 1 µM
[17] = biological target: T3, Mitogen-activated protein kinase 14 (Homo sapiens, UniProt Q16539); test: Selectivity interaction (KinomeScan (DiscoverX)) EUB0000045b MAPK14
[18] = biological target: Tyrosine-protein kinase JAK2 (Homo sapiens, UniProt O60674); test: Selectivity interaction (Kinase panel (Carna Biosciences)) EUB0001542aTs JAK2; details: at 1 µM
[19] = biological target: Serine/threonine-protein kinase PAK 1 (Homo sapiens) (UniProt Q13153); details: at 10 µM
[20] = test system: Leucine-rich repeat serine/threonine-protein kinase 2 (Homo sapiens), Q5S007 [G2019S]; test: (§2) Selectivity interaction (KinomeScan (DiscoverX)) EUB0000618a LRRK2; details: at 10 µM
[21] = biological target: Leucine-rich repeat serine/threonine-protein kinase 2 (Homo sapiens, UniProt Q5S007); test: as §2; details: at 10 µM
[22] = biological target: T3, Mitogen-activated protein kinase 14; test: Selectivity interaction (KinomeScan (DiscoverX)) EUB0001619a MAPK14; details: at 1 µM

T3 sequence (Q16539 whole entry): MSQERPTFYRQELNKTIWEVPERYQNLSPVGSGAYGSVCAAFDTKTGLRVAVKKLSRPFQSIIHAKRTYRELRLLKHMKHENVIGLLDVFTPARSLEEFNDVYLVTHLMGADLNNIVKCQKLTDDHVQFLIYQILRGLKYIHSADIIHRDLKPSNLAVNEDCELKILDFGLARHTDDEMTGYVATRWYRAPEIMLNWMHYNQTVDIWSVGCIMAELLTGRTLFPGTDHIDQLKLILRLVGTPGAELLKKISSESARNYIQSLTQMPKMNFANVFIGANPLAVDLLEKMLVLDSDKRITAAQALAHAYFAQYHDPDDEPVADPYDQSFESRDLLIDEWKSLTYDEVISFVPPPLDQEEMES
Chain of Tyrosine-protein kinase Fer (Homo sapiens) (P16591 whole entry, looked up): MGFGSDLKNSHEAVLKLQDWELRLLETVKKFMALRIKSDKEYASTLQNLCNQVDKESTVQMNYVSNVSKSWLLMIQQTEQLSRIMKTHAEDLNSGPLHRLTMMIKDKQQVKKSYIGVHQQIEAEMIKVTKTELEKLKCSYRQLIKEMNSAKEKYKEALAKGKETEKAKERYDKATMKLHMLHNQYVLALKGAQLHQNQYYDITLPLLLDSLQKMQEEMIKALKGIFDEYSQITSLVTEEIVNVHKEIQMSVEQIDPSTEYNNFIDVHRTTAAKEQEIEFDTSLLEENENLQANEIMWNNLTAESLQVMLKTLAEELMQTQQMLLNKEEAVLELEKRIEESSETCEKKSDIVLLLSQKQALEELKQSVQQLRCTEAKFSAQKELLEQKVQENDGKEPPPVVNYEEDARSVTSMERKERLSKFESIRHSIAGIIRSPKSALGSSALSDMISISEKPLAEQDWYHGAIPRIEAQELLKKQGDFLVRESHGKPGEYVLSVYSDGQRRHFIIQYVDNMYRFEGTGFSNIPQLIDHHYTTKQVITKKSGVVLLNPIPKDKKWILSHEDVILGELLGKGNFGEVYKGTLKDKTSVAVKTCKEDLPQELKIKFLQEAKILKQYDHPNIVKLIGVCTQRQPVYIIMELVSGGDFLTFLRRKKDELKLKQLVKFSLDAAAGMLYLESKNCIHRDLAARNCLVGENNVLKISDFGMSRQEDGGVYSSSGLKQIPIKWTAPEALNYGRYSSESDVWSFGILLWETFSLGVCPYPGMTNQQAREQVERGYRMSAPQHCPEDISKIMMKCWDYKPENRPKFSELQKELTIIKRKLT
Chain of LIM domain kinase 2 (Homo sapiens) (P53671 whole entry, looked up, the tested form may be a part): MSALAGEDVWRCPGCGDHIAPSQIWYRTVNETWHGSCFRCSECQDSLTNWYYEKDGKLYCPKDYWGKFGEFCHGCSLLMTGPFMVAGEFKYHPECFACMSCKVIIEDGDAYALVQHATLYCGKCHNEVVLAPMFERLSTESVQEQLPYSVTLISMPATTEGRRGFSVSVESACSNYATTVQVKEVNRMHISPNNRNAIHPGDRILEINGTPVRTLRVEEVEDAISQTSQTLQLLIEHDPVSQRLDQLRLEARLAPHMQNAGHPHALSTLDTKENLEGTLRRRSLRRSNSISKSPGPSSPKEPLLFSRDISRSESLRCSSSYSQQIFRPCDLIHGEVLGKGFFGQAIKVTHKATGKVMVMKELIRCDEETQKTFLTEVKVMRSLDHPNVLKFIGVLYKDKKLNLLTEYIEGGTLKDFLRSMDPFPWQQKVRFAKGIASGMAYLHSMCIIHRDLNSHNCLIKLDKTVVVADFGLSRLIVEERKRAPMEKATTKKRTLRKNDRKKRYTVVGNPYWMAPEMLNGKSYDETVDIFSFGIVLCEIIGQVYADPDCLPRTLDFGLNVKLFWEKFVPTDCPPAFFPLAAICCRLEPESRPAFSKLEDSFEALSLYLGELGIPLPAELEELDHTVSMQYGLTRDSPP
Chain of Leucine-rich repeat serine/threonine-protein kinase 2 (Q5S007 whole entry): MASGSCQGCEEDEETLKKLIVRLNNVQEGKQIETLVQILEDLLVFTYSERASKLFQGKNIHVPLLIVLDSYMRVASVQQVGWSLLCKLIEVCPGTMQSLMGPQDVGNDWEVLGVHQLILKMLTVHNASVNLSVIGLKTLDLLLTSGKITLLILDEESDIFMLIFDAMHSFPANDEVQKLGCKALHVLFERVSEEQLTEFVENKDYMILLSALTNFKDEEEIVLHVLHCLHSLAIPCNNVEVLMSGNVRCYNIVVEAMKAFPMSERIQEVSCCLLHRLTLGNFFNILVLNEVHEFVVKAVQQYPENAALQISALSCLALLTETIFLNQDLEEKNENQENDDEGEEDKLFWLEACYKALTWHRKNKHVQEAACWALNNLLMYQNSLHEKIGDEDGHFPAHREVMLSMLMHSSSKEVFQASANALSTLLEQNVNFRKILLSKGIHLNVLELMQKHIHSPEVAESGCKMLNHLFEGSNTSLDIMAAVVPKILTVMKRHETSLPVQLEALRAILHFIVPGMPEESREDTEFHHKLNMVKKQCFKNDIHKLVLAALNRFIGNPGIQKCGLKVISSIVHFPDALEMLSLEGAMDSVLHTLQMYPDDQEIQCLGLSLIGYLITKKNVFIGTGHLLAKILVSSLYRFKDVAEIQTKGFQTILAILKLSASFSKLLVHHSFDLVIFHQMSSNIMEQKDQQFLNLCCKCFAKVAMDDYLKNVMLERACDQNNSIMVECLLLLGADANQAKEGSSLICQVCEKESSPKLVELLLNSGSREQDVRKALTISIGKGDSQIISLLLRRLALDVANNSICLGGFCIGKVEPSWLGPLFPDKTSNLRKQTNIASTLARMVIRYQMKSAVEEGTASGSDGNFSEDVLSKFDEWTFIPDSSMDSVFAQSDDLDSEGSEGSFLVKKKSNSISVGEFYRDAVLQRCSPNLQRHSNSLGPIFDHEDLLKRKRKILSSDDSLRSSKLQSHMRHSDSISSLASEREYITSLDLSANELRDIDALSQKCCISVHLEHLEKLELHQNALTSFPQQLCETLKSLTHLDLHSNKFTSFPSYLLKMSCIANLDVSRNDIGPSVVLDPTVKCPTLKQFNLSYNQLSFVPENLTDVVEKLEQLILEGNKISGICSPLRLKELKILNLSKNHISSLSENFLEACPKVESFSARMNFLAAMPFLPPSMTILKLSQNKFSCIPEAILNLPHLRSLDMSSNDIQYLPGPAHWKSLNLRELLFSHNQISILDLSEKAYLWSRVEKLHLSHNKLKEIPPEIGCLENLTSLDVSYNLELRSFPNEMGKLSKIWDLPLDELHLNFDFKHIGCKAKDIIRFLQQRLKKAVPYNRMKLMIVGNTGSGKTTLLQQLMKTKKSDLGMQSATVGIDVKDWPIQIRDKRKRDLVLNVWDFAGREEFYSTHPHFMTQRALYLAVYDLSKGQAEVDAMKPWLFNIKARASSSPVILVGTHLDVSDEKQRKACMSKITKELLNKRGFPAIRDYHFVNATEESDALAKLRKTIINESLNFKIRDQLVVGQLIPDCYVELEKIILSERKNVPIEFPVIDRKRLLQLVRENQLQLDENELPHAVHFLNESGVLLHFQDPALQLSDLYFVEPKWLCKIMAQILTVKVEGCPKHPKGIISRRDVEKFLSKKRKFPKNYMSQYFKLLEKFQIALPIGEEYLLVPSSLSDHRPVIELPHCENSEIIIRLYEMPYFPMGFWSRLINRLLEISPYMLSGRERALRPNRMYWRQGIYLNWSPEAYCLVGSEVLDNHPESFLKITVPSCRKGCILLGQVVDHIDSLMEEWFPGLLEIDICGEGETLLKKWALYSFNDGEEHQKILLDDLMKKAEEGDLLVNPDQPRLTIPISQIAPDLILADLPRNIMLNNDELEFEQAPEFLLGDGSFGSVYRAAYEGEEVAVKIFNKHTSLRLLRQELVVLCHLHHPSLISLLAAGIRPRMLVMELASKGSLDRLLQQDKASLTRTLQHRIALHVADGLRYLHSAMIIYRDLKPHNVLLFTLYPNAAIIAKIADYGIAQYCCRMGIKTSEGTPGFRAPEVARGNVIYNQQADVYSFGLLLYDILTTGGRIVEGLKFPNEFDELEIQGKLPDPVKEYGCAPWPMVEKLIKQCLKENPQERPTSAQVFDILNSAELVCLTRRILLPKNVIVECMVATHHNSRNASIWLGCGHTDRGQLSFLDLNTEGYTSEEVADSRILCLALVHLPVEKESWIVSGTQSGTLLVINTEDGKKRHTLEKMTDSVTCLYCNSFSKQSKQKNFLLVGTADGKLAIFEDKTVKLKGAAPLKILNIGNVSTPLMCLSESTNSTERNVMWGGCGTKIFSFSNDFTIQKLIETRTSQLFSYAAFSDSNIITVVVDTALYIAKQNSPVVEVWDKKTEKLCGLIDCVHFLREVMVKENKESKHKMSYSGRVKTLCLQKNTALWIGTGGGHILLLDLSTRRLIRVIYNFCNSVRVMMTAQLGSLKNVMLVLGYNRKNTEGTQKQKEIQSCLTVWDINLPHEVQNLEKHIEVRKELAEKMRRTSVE
Chain of Dual specificity mitogen-activated protein kinase kinase 2 (Homo sapiens) (P36507 whole entry, the tested form may be a part): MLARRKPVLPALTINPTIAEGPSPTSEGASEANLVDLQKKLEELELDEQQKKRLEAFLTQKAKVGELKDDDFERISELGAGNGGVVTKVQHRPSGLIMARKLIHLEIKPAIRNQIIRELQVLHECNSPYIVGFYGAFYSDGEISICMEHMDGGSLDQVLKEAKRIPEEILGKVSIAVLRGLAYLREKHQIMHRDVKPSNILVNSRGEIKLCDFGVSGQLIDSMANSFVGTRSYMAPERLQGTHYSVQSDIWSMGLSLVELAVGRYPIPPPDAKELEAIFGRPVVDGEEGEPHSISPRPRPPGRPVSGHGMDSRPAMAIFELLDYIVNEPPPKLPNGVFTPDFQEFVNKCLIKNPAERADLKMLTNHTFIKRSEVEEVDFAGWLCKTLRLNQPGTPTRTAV
Chain of Leucine-rich repeat serine/threonine-protein kinase 2 (Homo sapiens), Q5S007 [G2019S] (Q5S007 whole entry G2019S): as the sequence (Q5S007 whole entry) above, with G2019S counted along it

Structure (SMILES): CNC(=O)Nc1ccc(-c2nc(N3CC4CCC(C3)O4)c3cnn(C4CCC5(CC4)OCCO5)c3n2)cc1
% of inhibition [1]: 1%

% of control [2]: 100%
Structure (SMILES): CCN(CC)CCCCNc1ncc2cc(-c3cc(OC)cc(OC)c3)c(NC(=O)NC(C)(C)C)nc2n1

% of control ([3]; at 1 µM): 92% | % of control ([3]; at 5 µM): 97% | % of control ([4]; at 1 µM): 87% | % of control ([4]; at 5 µM): 61% | % of control ([5]; at 1 µM): 94% | % of control ([5]; at 5 µM): 88% | % of control ([6]; at 1 µM): 93% | % of control ([6]; at 5 µM): 71% | % of control ([7]; at 1 µM): 91% | % of control ([7]; at 5 µM): 82% | % of control ([8]; at 1 µM): 88% | % of control ([8]; at 5 µM): 89% | % of control ([9]; at 1 µM): 96% | % of control ([9]; at 5 µM): 71% | % of control ([10]; at 1 µM): 96% | % of control ([10]; at 5 µM): 65% | % of control ([11]; at 1 µM): 102% | % of control ([11]; at 5 µM): 82% | % of control ([12]; at 1 µM): 85% | % of control ([12]; at 5 µM): 64%
Structure (SMILES): C=CC(=O)Nc1cccc(C(=O)Nc2ccc(Nc3cc(-c4[nH]c(SC)nc4C)ccn3)cc2)c1

Structure (SMILES): Cc1cc(C)cc([C@@H]2c3cc(C)ccc3NC(=O)CN2C(=O)c2ccc(Br)s2)c1
% of inhibition [13]: -5%

Structure (SMILES): COCC(=O)NC/C=C/c1ccc2ncnc(Nc3ccc(Oc4ccc(C)nc4)c(C)c3)c2c1 [CP-724714]
% of control [14]: 11%

Structure (SMILES): COc1cc(Nc2nc(C)cc(-c3cnn4nc(OC)ccc34)n2)cc(C(F)(F)F)c1
% of control [15]: 92%

Structure (SMILES): CN(C)C/C=C/C(=O)Nc1ccc(C(=O)N2CCCC(Nc3ncc(Cl)c(-c4c[nH]c5ccccc45)n3)C2)cc1 (stereo not drawn)
% of control [16]: 14%

Structure (SMILES): C=CC(=O)Nc1cc(-n2c(=O)ccc3cnc4ccc(-c5ccc(NS(C)(=O)=O)cc5)cc4c32)ccc1C
% of control ([17]; at 1 µM): 98% | % of control ([17]; at 10 µM): 100%

% of inhibition [18]: 101%
Structure (SMILES): Cn1cc(Nc2nccc(N3CC4CCC(C3)N4C(=O)[C@@H]3CC3(F)F)n2)cn1

Structure (SMILES): Cc1cc([C@@H](C)Nc2ccccc2C(=O)O)c2nc(N3CCOCC3)cc(=O)n2c1 [AZD-6482]
% of control [19]: 100%

Structure (SMILES): O[C@H]1CC[C@H](Nc2ncc3nc(Nc4c(F)cc(F)cc4F)n([C@H]4CCOC4)c3n2)CC1
% of control [20]: 95% | % of control [21]: 83%

Structure (SMILES): N#Cc1cccc(-c2c[nH]c3ncnc(N4CCOCC4)c23)c1
% of control [22]: 100%
